Data reported in patent US20250248979A1, “NOVEL GPX4 INHIBITORS AND USES THEREOF” (THE TRUSTEES OF COLUMBIA UNIVERSITY IN THE CITY OF NEW YORK, priority 2022, published 2025).
Residue numbers refer to the chain shown, from its start. Where two headings read alike, the source gives them in different places.

Legend:
GPX4 [1] = biological target: T1, GPX4 (Homo sapiens, UniProt P36969); assay: Western blot assay of GPX4 protein degradation; assay type: cell-based
T1 sequence (P36969 1-170 isoform P36969-2): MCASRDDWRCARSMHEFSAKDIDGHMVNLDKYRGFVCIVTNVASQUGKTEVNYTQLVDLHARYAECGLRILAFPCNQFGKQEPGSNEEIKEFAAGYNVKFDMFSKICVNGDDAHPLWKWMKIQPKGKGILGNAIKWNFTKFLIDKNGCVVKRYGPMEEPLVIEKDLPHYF
Procedure: HT-1080 cells were seeded at 250,000 cells per well in a 6-well plate and incubated 37° C. with 5% CO2 overnight. The next day, cells were treated with vehicle alone or the compound of interest with 10 μM Fer-1 for 10 hours. Compounds were dissolved in DMSO. Cells were harvested with trypsin, washed with cold PBS, and lysed in RIPA buffer containing complete Protease Inhibitor Cocktail mini tablets (Roche) on ice for 30 minutes. Samples were then centrifuged at 14,000×g for 15 minutes at 4° C. Supernatants were collected and protein concentrations were determined using the BCA Protein Assay Kit (Pierce). Concentrations were normalized across samples and mixed with 6×SDS-PAGE Sample Loading Buffer (G Biosciences). Protein samples were then loaded on a NuPAGE Novex 4-12% Bis-Tris protein gel and run in MES buffer (Invitrogen) at 100V for 10 minutes then 200V for an additional 30 minutes. Proteins were transferred to a PVDF membrane (Invitrogen) using the iBlot 2 Gel Transfer Device. The membrane was washed with PBS, then blocked using Intercept Blocking Buffer (LICOR) for one hour. The membrane was then incubated with the primary antibodies in a 1:1 solution of blocking buffer and PBST (PBS+0.1% Tween 20) overnight at 4° C. […] The blot was imaged using a LI-COR Odyssey CLx IR scanner and results were quantified in ImageJ and GraphPad Prism 9.

PC9 cells = assay: cells; conditions: Homo sapiens, PC-9, 48 h, read-out: % Viability PC9
GFP-GPX4^WT = biological target: T2, GFP-GPX4^WT (Homo sapiens, UniProt P36969); assay: Degradation of GPX4 and GFP-GPX4^WT with MG-132; assay type: cell-based; conditions: 1.0 μM ± MG-132 (10 μM), 18 hours
T2 construct: expressed in transfected cells; host or cells: HT-1080 overexpressing GFP-GPX4^WT

GFP-GPX4^K125R_K127R = biological target: T3, GFP-GPX4^K125R_K127R (Homo sapiens, UniProt P36969, K152R/K154R); assay: Degradation of GFP-GPX4^K125R_K127R in HT-1080 cells; assay type: cell-based
T3 construct: expressed in transfected cells

GPX1 = biological target: T4, GPX1 (Homo sapiens, UniProt P07203); assay: Degradation of endogenous GPX1 in HT-1080 cells; assay type: cell-based; parameters: endogenous in cells
T4 sequence (P07203 1-203): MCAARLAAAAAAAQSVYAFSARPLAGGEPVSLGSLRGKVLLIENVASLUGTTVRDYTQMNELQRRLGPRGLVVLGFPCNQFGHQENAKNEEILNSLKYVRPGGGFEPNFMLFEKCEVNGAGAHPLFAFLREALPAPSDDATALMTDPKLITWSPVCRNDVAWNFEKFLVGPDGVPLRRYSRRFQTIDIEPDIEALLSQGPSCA

GPX4^U46C = biological target: T5, GPX4^U46C (Homo sapiens, UniProt P36969, U73C); assay: Intact protein MALDI MS analysis; assay type: binding; conditions: 150 μM
T5 construct: made in house; host or cells: E. coli BL21-Gold (DE3)
T5 sequence (P36969 1-170 isoform P36969-2 U46C): T1 sequence (P36969 1-170 isoform P36969-2) with U46C

GPX4 [2] = biological target: T1, GPX4; assay: Cellular thermal shift assay (CETSA), GPX4; assay type: cell-based; parameters: To prepare the cell lysate containing native GPX4, A-673 cells were cultured; endogenous in cells; host or cells: A-673 cell lysate; conditions: 10 μM compound for 1 h

T3 sequence (P36969 28-197 K152R/K154R): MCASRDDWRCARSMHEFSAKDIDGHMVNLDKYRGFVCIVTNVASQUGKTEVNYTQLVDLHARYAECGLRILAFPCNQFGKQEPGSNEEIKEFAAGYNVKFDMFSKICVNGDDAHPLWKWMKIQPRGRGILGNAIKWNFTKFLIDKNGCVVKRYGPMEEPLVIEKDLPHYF

## COc1cccc2[nH]c(C(=O)n3ccnc3)cc12 [LOC1886, reference compound]
GPX4 [1]; HT-1080 cells
  GPX4 protein degradation, result in words: inhibits and degrades GPX4

## Cn1nc(C(=O)NC(C)(C)COC(=O)CCl)c2ccc(Br)cc21 [QW-314]
PC9 cells
  viability at 10 µM: 62%
GPX4 [1]
  GPX4 protein degradation, result in words: induces GPX4 protein degradation in HT-1080 cells

## CC(C)(COC(=O)CCl)NC(=O)c1nn(Cc2cc(Cl)cc(Cl)c2)c2cc(-c3ccc(N4CCOCC4)c(Cl)c3)ccc12 [QW-852]
GFP-GPX4^WT
  GPX4 degradation with MG-132: effectively blocked by MG-132
GFP-GPX4^K125R_K127R
  degradation of GFP-GPX4^K125R_K127R: but not by QW-852
GPX1
  GPX1 degradation: less effective at degrading GPX1
PBMCs
  selectivity in cancer cells compared to PBMCs: Over 10 fold
GPX4^U46C
  covalent binding to GPX4^U46C (mass shift): lower potency than RSL3 to covalently bind to GPX4^U46C
GPX4 [2]
  thermal stability of GPX4: stabilizing the protein
